Test system: 883617-216-R-J1-PDC complex spheroid viability
Assay: Anticancer human tumor 883617-216-R-J1-PDC patient-derived bladder carcinoma cell line growth inhibition
Settings: for IC50: curve of first compound; for viability, T/C: stronger effect = lower value
Method in brief: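 Complex spheroids of tumor cells with HUVEC and human MSCs, exposed to iadademstat combined with other agents. Each agent tested in half-log steps from near clinical Cmax (else 10 microM top), DMSO ≤0.25%.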

[1] = second compound 0.1 µM, first compound 0.00949 µM
[2] = second compound 0.1 µM, first compound 0.03 µM
[3] = second compound 0.1 µM, first compound 0.0949 µM
[4] = second compound 0.1 µM, first compound 0.3 µM
[5] = second compound 0.316 µM, first compound 0.00949 µM
[6] = second compound 0.316 µM, first compound 0.03 µM
[7] = second compound 0.316 µM, first compound 0.0949 µM
[8] = second compound 0.316 µM, first compound 0.3 µM
[9] = second compound 1 µM, first compound 0.00949 µM
[10] = second compound 1 µM, first compound 0.03 µM
[11] = second compound 1 µM, first compound 0.0949 µM
[12] = second compound 1 µM, first compound 0.3 µM
[13] = second compound 3.16 µM, first compound 0.00949 µM
[14] = second compound 3.16 µM, first compound 0.03 µM
[15] = second compound 3.16 µM, first compound 0.0949 µM
[16] = second compound 3.16 µM, first compound 0.3 µM
[17] = second compound 10 µM, first compound 0.00949 µM
[18] = second compound 10 µM, first compound 0.03 µM
[19] = second compound 10 µM, first compound 0.0949 µM
[20] = second compound 10 µM, first compound 0.3 µM
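Note: exposure lasted seven days after three days of spheroid growth.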
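Throughout, for viability, T/C: 100% = DMSO vehicle control luminescence.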

In the case of `CC1(C)CCC(CN2CCN(c3ccc(C(=O)NS(=O)(=O)c4ccc(NCC5CCOCC5)c([N+](=O)[O-])c4)c(Oc4cnc5[nH]ccc5c4)c3)CC2)=C(c2ccc(Cl)cc2)C1` + NC1CCC(NC2CC2c2ccccc2)CC1, the IC50 (second compound 0.1 µM) is reported as 7.33 µM, the IC50 (second compound 0.316 µM) is reported as 7.54 µM and the IC50 (second compound 1 µM) is reported as 7.34 µM. For the same compound, the IC50 (second compound 3.16 µM) was 7.34 µM, the IC50 (second compound 10 µM) was 7.1 µM and the viability, T/C (second compound 0.1 µM, first compound 0.0316 µM) was 108%. It also gave a viability, T/C (second compound 0.1 µM, first compound 0.1 µM) of 114%, a viability, T/C (second compound 0.1 µM, first compound 0.316 µM) of 109% and a viability, T/C (second compound 0.1 µM, first compound 1 µM) of 104%. It also gave a viability, T/C (second compound 0.1 µM, first compound 3.16 µM) of 109%, a viability, T/C (second compound 0.1 µM, first compound 10 µM) of 28.3% and a viability, T/C (second compound 0.316 µM, first compound 0.0316 µM) of 111%. The viability, T/C (second compound 0.316 µM, first compound 0.1 µM) was 106%, the viability, T/C (second compound 0.316 µM, first compound 0.316 µM) was 122% and the viability, T/C (second compound 0.316 µM, first compound 1 µM) was 109%. It also gave a viability, T/C (second compound 0.316 µM, first compound 3.16 µM) of 125%, a viability, T/C (second compound 0.316 µM, first compound 10 µM) of 28.9% and a viability, T/C (second compound 1 µM, first compound 0.0316 µM) of 105%. It also gave a viability, T/C (second compound 1 µM, first compound 0.1 µM) of 110%, a viability, T/C (second compound 1 µM, first compound 0.316 µM) of 118% and a viability, T/C (second compound 1 µM, first compound 1 µM) of 110%. The viability, T/C (second compound 1 µM, first compound 3.16 µM) was 113%, the viability, T/C (second compound 1 µM, first compound 10 µM) was 27.4% and the viability, T/C (second compound 3.16 µM, first compound 0.0316 µM) was 104%. For the same compound, the viability, T/C (second compound 3.16 µM, first compound 0.1 µM) was 114%, the viability, T/C (second compound 3.16 µM, first compound 0.316 µM) was 110% and the viability, T/C (second compound 3.16 µM, first compound 1 µM) was 114%. The viability, T/C (second compound 3.16 µM, first compound 3.16 µM) was 120%, the viability, T/C (second compound 3.16 µM, first compound 10 µM) was 27% and the viability, T/C (second compound 10 µM, first compound 0.0316 µM) was 107%. The viability, T/C (second compound 10 µM, first compound 0.1 µM) was 102%, the viability, T/C (second compound 10 µM, first compound 0.316 µM) was 108% and the viability, T/C (second compound 10 µM, first compound 1 µM) was 110%. It also gave a viability, T/C (second compound 10 µM, first compound 3.16 µM) of 118% and a viability, T/C (second compound 10 µM, first compound 10 µM) of 24.8%.
`CCN(c1cc(-c2ccc(CN3CCOCC3)cc2)cc(C(=O)NCc2c(C)cc(C)[nH]c2=O)c1C)C1CCOCC1` + NC1CCC(NC2CC2c2ccccc2)CC1 was tested, and the IC50 (second compound 0.1 µM) was over 3 µM, the IC50 (second compound 0.316 µM) was over 3 µM and the IC50 (second compound 1 µM) was over 3 µM. For the same compound, the IC50 (second compound 3.16 µM) was over 3 µM, the IC50 (second compound 10 µM) was over 3 µM and the viability, T/C [1] was 96.4%. It also gave a viability, T/C [2] of 85%, a viability, T/C [3] of 86.9% and a viability, T/C [4] of 84.7%. For the same compound, the viability, T/C (second compound 0.1 µM, first compound 0.949 µM) was 90.7%, the viability, T/C (second compound 0.1 µM, first compound 3 µM) was 80.8% and the viability, T/C [5] was 95.8%. It also gave a viability, T/C [6] of 98.8%, a viability, T/C [7] of 93.1% and a viability, T/C [8] of 87.6%. For the same compound, the viability, T/C (second compound 0.316 µM, first compound 0.949 µM) was 89.1%, the viability, T/C (second compound 0.316 µM, first compound 3 µM) was 86% and the viability, T/C [9] was 90.2%. For the same compound, the viability, T/C [10] was 89.5%, the viability, T/C [11] was 83.8% and the viability, T/C [12] was 88.4%. It also gave a viability, T/C (second compound 1 µM, first compound 0.949 µM) of 90%, a viability, T/C (second compound 1 µM, first compound 3 µM) of 86.3% and a viability, T/C [13] of 94.5%. The viability, T/C [14] was 87.7%, the viability, T/C [15] was 88.3% and the viability, T/C [16] was 89.9%. For the same compound, the viability, T/C (second compound 3.16 µM, first compound 0.949 µM) was 87.9%, the viability, T/C (second compound 3.16 µM, first compound 3 µM) was 93.9% and the viability, T/C [17] was 97.8%. It also gave a viability, T/C [18] of 91.7%, a viability, T/C [19] of 90.8% and a viability, T/C [20] of 96.2%. The viability, T/C (second compound 10 µM, first compound 0.949 µM) was 94.5% and the viability, T/C (second compound 10 µM, first compound 3 µM) was 92.8%.
`Nc1ncn(C2CC(O)C(CO)S2)c(=O)n1` (stereo not given) + NC1CCC(NC2CC2c2ccccc2)CC1 gave an IC50 (second compound 0.1 µM) of over 0.3 µM, an IC50 (second compound 0.316 µM) of over 0.3 µM and an IC50 (second compound 1 µM) of 0.291 µM. It also gave an IC50 (second compound 3.16 µM) of over 0.3 µM, an IC50 (second compound 10 µM) of over 0.3 µM and a viability, T/C (second compound 0.1 µM, first compound 0.000949 µM) of 106%. The viability, T/C (second compound 0.1 µM, first compound 0.003 µM) was 111%, the viability, T/C [1] was 101% and the viability, T/C [2] was 72.9%. For the same compound, the viability, T/C [3] was 59.1%, the viability, T/C [4] was 48.3% and the viability, T/C (second compound 0.316 µM, first compound 0.000949 µM) was 114%. For the same compound, the viability, T/C (second compound 0.316 µM, first compound 0.003 µM) was 110%, the viability, T/C [5] was 102% and the viability, T/C [6] was 68.3%. For the same compound, the viability, T/C [7] was 60.6%, the viability, T/C [8] was 52.8% and the viability, T/C (second compound 1 µM, first compound 0.000949 µM) was 113%. For the same compound, the viability, T/C (second compound 1 µM, first compound 0.003 µM) was 106%, the viability, T/C [9] was 97.1% and the viability, T/C [10] was 75.4%. For the same compound, the viability, T/C [11] was 57.5%, the viability, T/C [12] was 50.1% and the viability, T/C (second compound 3.16 µM, first compound 0.000949 µM) was 101%. The viability, T/C (second compound 3.16 µM, first compound 0.003 µM) was 106%, the viability, T/C [13] was 86.1% and the viability, T/C [14] was 72.8%. The viability, T/C [15] was 61.4%, the viability, T/C [16] was 53.7% and the viability, T/C (second compound 10 µM, first compound 0.000949 µM) was 110%. The viability, T/C (second compound 10 µM, first compound 0.003 µM) was 114%, the viability, T/C [17] was 91.3% and the viability, T/C [18] was 74.8%. It also gave a viability, T/C [19] of 67.7% and a viability, T/C [20] of 55.6%.

From PubChem BioAssay AID1918945 (Molecular Pharmacology Branch, DTP, NCI, 2023)
